Assay type in all cases: functional
The subject of test [1] is 786-0. Briefly: Compound was tested for antitumor activity against 786-0 renal cancer cell line(molar concentration that inhibits 50% net cell growth). The conditions noted are these: Homo sapiens.
Test [2] has as its system ACHN. Briefly: Compound was tested for antitumor activity against ACHN renal cancer cell line(molar concentration leading to 50% net cell death). The conditions noted are these: Homo sapiens.
Test [3] has as its system 786-0. Briefly: Compound was tested for antitumor activity against 786-0 renal cancer cell line(molar concentration leading to 50% net cell death). The conditions noted are these: Homo sapiens, read-out: Log LC50 (the source's name) (converted).
The test system of test [4] is TK-10. Kind of test: Compound was tested for antitumor activity against TK-10 renal cancer cell line(molar concentration leading to 50% net cell death). Particulars: Homo sapiens.
The subject of test [5] is TK-10. Briefly: Compound was tested for antitumor activity against TK-10 renal cancer cell line(molar concentration that inhibits 50% net cell growth). Particulars: Homo sapiens.
The test system of test [6] is ACHN. Briefly: Compound was tested for antitumor activity against ACHN renal cancer cell line(molar concentration that inhibits 50% net cell growth). Particulars: Homo sapiens.

As usually defined, the GI50 is the concentration that inhibits growth by half. Read a high GI50 as less potent growth inhibition. Regarding `SC1=Nc2ccc(Br)cc2-c2nc(-c3ccccc3)cc(-c3ccccc3)c2C1`, the GI50 in test [1] is 1.17 µM; in test [5] it was 1.23 µM; in test [6], 0.741 µM. This molecule also showed an LC50 (50% net cell death) in test [2] of 8.51 µM. Further, the CC50 in test [3] was 7.08 µM. In test [4], this molecule gave an LC50 (concentration causing 50% net cell death) of 18.6 µM.

`SC1=Nc2ccccc2-c2nc(-c3ccccc3)cc(-c3ccc(Br)cc3)c2C1`: the 50% growth inhibitory concentration (GI50) in test [1] is 0.631 µM; in test [5], 1.78 µM; in test [6] it was 0.871 µM. In addition, in test [2], the LC50 (50% net cell death) was 5.89 µM. In test [3], the CC50 is 4.47 µM. In test [4], this molecule gave an LC50 (concentration causing 50% net cell death) of 7.76 µM.

Consider `O=C1Cc2c(-c3ccccc3)cc(-c3ccccc3)nc2-c2ccccc2N1`, for which the values for the concentration for 50% growth inhibition (GI50) in test [1], in test [5] and in test [6] were 4.17 µM, 2.45 µM and 4.07 µM, respectively. The same molecule had an LC50 (50% net cell death) in test [2] of 70.8 µM. Besides, the CC50 in test [3] is over 100 µM. This molecule also had an LC50 (concentration causing 50% net cell death) in test [4] of over 100 µM.

With `O=C1Cc2c(-c3ccc(Br)cc3)cc(-c3ccccc3)nc2-c2ccccc2N1`, the 50% growth inhibitory concentration (GI50) is 1.62 µM in test [1], 0.186 µM in test [5] and 3.98 µM in test [6]. The molecule further showed an LC50 (50% net cell death) in test [2] of 50.1 µM. The CC50 in test [3] was 9.55 µM. Moreover, the LC50 (concentration causing 50% net cell death) in test [4] is 2.24 µM.

For the molecule `O=C1Cc2c(-c3ccccc3)cc(-c3ccccc3)nc2-c2cc(Br)ccc2N1`, the 50% growth inhibitory concentration (GI50) in test [1] was 0.631 µM; in test [5], 0.427 µM; in test [6], 1.26 µM. In test [2], this molecule gave an LC50 (50% net cell death) of 15.5 µM. In test [3], the CC50 is 4.79 µM. In addition, in test [4], the LC50 (concentration causing 50% net cell death) was 9.12 µM.

As for `SC1=Nc2ccccc2-c2nc(-c3cccc(Cl)c3)cc(-c3ccccc3)c2C1`, the GI50 is 0.977 µM in test [1], 0.437 µM in test [5] and 0.617 µM in test [6]. This molecule had an LC50 (50% net cell death) in test [2] of 19.1 µM. For the same molecule, in test [3], the CC50 is 4.79 µM. Also, in test [4], the LC50 (concentration causing 50% net cell death) was 9.55 µM.

On to `O=C1Cc2c(-c3ccccc3)cc(-c3cccc(Cl)c3)nc2-c2ccccc2N1`, for which the figures for the 50% growth inhibitory concentration (GI50) in test [1], in test [5] and in test [6] were 0.977 µM, 1.48 µM and 1.15 µM, respectively. This molecule had an LC50 (50% net cell death) in test [2] of 24.5 µM. For the same molecule, in test [3], the CC50 is 5.37 µM. This molecule also gave an LC50 (concentration causing 50% net cell death) in test [4] of 17.4 µM.
